The test system of assay [1] is Canis familiaris. Nature of the assay: In vivo inhibition of ACLY in po dosed dog assessed as reduction in plasma triglyceride level after 15 days relative to control. Format: functional, Canis lupus familiaris.
In assay [2] the test system is Canis familiaris. The assay is described as follows: In vivo inhibition of ACLY in po dosed dog assessed as reduction in plasma cholesterol level after 15 days relative to control. It counts as functional, Canis lupus familiaris.
Assay [3] deals with Rattus norvegicus. Nature of the assay: In vivo inhibition of ACLY in po dosed rat assessed as reduction in plasma triglyceride level after 7 days relative to control. Format: functional.
Assay [4] relates to Rattus norvegicus. The assay is described as follows: In vivo inhibition of ACLY in po dosed rat assessed as reduction in plasma cholesterol level after 7 days relative to control. It counts as functional.
Assay [5] concerns SK-OV-3. The assay is described as follows: Antiproliferative activity against human SKOV3 cells. Format: functional, cell-based.
The test system of assay [6] is PC-3. Nature of the assay: Antiproliferative activity against human PC3 cells. It counts as functional, cell-based.
For assay [7], the target named is T1, ATP-citrate synthase (Homo sapiens) (UniProt P53396).
T1 sequence (whole entry): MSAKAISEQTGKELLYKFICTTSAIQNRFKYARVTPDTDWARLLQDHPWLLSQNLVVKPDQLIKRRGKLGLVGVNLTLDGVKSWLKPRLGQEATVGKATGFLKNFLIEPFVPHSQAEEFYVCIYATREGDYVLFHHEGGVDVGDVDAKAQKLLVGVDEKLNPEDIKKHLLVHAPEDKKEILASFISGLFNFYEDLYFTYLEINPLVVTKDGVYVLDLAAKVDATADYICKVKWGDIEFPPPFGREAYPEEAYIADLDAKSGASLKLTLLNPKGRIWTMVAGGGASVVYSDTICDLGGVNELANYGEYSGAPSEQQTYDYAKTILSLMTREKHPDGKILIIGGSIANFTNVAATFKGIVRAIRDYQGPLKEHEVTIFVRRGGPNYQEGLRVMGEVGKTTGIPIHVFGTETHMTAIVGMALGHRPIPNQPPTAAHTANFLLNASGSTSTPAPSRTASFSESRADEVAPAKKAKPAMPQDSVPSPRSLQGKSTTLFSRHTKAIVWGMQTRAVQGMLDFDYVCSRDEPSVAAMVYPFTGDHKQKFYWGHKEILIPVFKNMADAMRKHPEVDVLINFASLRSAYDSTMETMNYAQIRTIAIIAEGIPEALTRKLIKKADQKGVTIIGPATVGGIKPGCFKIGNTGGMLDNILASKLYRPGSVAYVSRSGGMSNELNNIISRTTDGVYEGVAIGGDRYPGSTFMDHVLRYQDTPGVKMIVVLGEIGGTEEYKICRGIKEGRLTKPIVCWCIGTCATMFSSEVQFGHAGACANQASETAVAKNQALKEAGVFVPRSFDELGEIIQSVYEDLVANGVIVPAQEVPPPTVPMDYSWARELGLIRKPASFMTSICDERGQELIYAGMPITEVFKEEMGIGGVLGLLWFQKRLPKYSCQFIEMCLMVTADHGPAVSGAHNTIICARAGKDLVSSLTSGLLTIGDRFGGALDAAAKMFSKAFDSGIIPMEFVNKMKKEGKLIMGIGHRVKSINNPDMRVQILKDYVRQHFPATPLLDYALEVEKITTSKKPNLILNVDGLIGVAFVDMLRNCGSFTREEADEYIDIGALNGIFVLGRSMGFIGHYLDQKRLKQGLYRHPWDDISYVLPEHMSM
The assay is described as follows: Inhibition of ACLY in human HepG2 cells assessed as reduction in fatty acid synthesis at 30 uM relative to control. Format: cell-based.

Assay [8] concerns A549. Nature of the assay: Antiproliferative activity against human A549 cells. It counts as functional, cell-based.
Assay [9] deals with T1, ATP-citrate synthase (Homo sapiens). Nature of the assay: Inhibition of ACLY in human HepG2 cells assessed as reduction in cholesterol synthesis at 30 uM relative to control. Format: cell-based.
Assay [10] has as its target T2, ATP-citrate synthase (Rattus norvegicus, UniProt P16638).
T2 sequence (P16638 whole entry): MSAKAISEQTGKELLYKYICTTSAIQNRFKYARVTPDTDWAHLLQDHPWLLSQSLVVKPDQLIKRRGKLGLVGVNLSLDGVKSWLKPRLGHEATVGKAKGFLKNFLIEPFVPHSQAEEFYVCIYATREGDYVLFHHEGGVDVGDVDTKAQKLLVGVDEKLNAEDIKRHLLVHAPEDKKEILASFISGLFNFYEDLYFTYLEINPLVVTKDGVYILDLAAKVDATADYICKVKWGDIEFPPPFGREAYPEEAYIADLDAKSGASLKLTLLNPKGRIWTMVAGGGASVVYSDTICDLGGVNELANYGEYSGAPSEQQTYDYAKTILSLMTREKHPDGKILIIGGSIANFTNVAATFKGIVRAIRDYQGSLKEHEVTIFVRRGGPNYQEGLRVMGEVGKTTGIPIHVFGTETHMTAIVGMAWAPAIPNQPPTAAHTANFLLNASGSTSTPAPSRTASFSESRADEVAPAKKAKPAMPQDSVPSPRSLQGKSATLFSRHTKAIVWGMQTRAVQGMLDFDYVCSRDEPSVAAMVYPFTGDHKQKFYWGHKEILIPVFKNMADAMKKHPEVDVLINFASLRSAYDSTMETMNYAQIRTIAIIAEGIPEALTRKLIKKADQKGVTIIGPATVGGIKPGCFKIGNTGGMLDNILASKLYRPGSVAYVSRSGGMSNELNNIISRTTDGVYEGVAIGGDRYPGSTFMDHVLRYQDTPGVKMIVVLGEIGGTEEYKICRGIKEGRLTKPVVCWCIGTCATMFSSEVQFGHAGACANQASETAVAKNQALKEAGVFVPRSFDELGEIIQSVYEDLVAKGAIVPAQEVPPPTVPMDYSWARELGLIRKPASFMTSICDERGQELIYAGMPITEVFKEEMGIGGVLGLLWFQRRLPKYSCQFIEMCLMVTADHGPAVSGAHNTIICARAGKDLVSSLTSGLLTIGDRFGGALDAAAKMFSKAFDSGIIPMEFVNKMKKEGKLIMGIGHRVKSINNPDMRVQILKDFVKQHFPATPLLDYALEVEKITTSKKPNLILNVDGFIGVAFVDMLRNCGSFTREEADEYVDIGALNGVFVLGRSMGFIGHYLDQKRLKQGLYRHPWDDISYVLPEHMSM
The assay is described as follows: (§1) Inhibition of rat liver ACLY.

In assay [11] the target is T3, ATP-citrate synthase (Rattus norvegicus) (UniProt P16638).
T3 sequence (whole entry): T2 sequence (P16638 whole entry)
The description is as §1. To be noted: concentration not given here.

The target in assay [12] is T4, ATP-citrate synthase (Homo sapiens, UniProt P53396).
T4 sequence (P53396 whole entry): T1 sequence (whole entry)
Nature of the assay: Inhibition of ACLY (unknown origin).

For assay [13], the target named is T4, ATP-citrate synthase.
Description: Competitive inhibition of human liver ACLY using varying levels of citrate as substrate
In assay [14] the test system is LNCaP. Nature of the assay: Antiproliferative activity against human LNCAP cells. It counts as functional, cell-based.
Assay [15] relates to Rattus norvegicus. The assay is described as follows: In vivo inhibition of ACLY in rat administered through diet relative to control. Format: functional.
For assay [16], the target named is T2, ATP-citrate synthase. Nature of the assay: Reversible inhibition of rat liver ACLY.

In the case of `O=C(O)C[C@@](O)(C[C@H](O)CCCCCCc1ccc(Cl)cc1Cl)C(=O)O`, the “inhibition (INH)” value is recorded as “<=38%” in assay [1], “<=23%” in assay [2], “<=80%” in assay [3] and “<=46%” in assay [4]. What is called IC50 is the concentration that inhibits the measured activity by half. High values mean lower potency, low ones higher potency. As a reminder, the inhibition is the drop in the measured response relative to a control, in per cent. With `O=C(O)C[C@@]1(O)C[C@@H](CCCCCCc2ccc(Cl)cc2Cl)OC1=O`, the IC50 in assay [5] was determined as 53 µM; in assay [6], 26 µM; in assay [8], 24 µM. Moreover, the inhibition in assay [7] stood at 82%; in assay [9], 91%. In general, Ki refers to the dissociation constant of the complex between target and ligand, obtained from inhibition or displacement. Read a low Ki as tighter binding. In assay [10], `O=C1C[C@@](O)(C(=O)O)[C@@H](C(=O)O)O1` gave an inhibition constant (Ki) of 50 to 100 µM.

In assay [11], `CC(=O)C(C)=O` came in with an inhibition of 35%.

In turn, `N[C@@H](CCC(=O)O)C(=O)O` [GLUTAMIC ACID] registered a Ki in [10] of 300 µM. For the compound `O=CC(=O)c1ccccc1`, in assay [11], the inhibition amounted to 85%. For the compound `O=C1C(c2ccc(O)c(O)c2)=c2c(c3c(n2CCc2ccc(O)cc2)=C(c2ccc(O)c(O)c2)C(=O)c2cc(O)c(O)cc2-3)-c2cc(O)c(O)cc21` [PURPURONE], the IC50 in assay [12] is 7 µM.

For the compound `O=C(O)C[C@@](O)(C(=O)O)[C@H](O)C(=O)O`, in assay [13], affinity was put at a Ki of 300 µM. For `CC1=CC(O)=C2C(=O)c3c(ccc(-c4ccc5c(c4O)C(=O)C4=C(O)C6OC6(C)C(OC(=O)CC(=O)O)C4(C)O5)c3O)OC2(C)C1=O` (stereo not given), the IC50 in assay [10] is 6.19 µM.

Regarding `CC(=O)OC(C)(C)/C=C/C(=O)[C@](C)(O)[C@H]1[C@H](O)C[C@@]2(C)[C@@H]3CC=C4[C@@H](C[C@H](O)C(=O)C4(C)C)[C@]3(C)C(=O)C[C@]12C`, the IC50 in assay [14] and in assay [6] was 0.1 µM throughout. For `CC12Oc3ccc(-c4ccc5c(c4O)C(=O)C4=C(O)C6OC6(C)C(OC(=O)CC(=O)O)C4(C)O5)c(O)c3C(=O)C1=C(O)C1OC1(C)C2O` (stereo not given), the IC50 in assay [10] was 9.63 µM. Regarding `CCCCCC[C@H]1C(=O)O[C@H](C)[C@H](NC(=O)c2cccc(NC=O)c2O)C(=O)O[C@@H](C)[C@@H]1OC(=O)CCC`, in assay [10], the Ki was found to be 4 µM. `CC(C)CC[C@H]1C(=O)O[C@H](C)[C@H](NC(=O)c2cccc(NC=O)c2O)C(=O)O[C@@H](C)[C@@H]1OC(=O)CC(C)C` returned a Ki in assay [10] of 4 µM. Turning to `Clc1cccc(-c2ccc(Cl)c(Cl)c2Cl)c1Cl`, the “inhibition (INH)” value in assay [15] was found to be 69%. The compound `CS(=N)(=O)C[C@@](O)(CC(=O)O)C(=O)O` (stereo not given in full) showed an inhibition constant Ki in assay [16] of 250 µM. The compound `CCCCCC[C@H]1C(=O)O[C@H](C)[C@H](NC(=O)c2cccc(NC=O)c2O)C(=O)O[C@@H](C)[C@@H]1OC(=O)C(C)C` showed a Ki in assay [10] of 4 µM. Same read-out and setting: the same measure for `CCC(C)C(=O)O[C@H]1[C@H](C)OC(=O)[C@@H](NC(=O)c2cccc(NC=O)c2O)[C@@H](C)OC(=O)[C@@H]1CCC(C)C` (stereo not given in full): 4 µM.

The values are drawn from ChEMBL document CHEMBL4270641, “ATP citrate lyase (ACLY) inhibitors: An anti-cancer strategy at the crossroads of glucose and lipid metabolism” (Eur J Med Chem, 2018).
